# pKd: −log10 of the molar value.
# Columns and labels:
# [1] = known value; cited from earlier work
# [2] = Capillary electrophoresis (Job's plot) binding affinity of the DT3 ligand for Gd^3+ in methanol; conditions: 25° C., 1:1 complex with Gd^3+, read-out: dissociation constant (Kd)
# Description: FIG. 11 is a plot of peak area of the Gd(DT3) by capillary electrophoresis vs. mole fraction of Gd^3+ and illustrates the Job's plot assay for determination of the stoichiometry of and dissociation constant for Gd(DT3) in methanol.
# The binding affinity of the DT3 ligand for Gd^3+ and the stoichiometry of the Gd(DT3) complex was determined using capillary electrophoresis (CE). […] See, FIG. 11. […] Gadolinium(III) chloride (the source of Gd^3+ for these experiments) is insoluble in non-polar organic solvents; the dissociation constants was not measured in these solvents.
# [3] = Magnetic susceptibility from levitation of a glass bead in solutions of the paramagnetic salt; type: physicochemical; conditions: four solutions 100-175 mM in 9:1 chlorobenzene-toluene, 23° C.
# Description: The average magnetic susceptibility for solid Gd(DT3) (in the centimeter-gram-second system of units, cgs (cm^3/mol)) was determined by measuring the magnetic susceptibilities for solutions of Gd(DT3) (χl^SI, International System of Units), and by inputting these values into Equation (3). χl^SI=4πχl^CGS[Gd^3+] (3)
# Magnetic susceptibility values were measured for solutions of Gd(DT3) (100-175 mM) in 9:1 chlorobenzene-toluene (23° C.) by levitating a glass bead (ρp=1.0900 g/cm^3) in these solutions (FIG. 12A). This mixture of solvents is adequate because it has a density (ρl=1.082±0.003 g/cm^3) slightly below the density of the glass bead that was used. The vertical position of the glass bead (z) in each solution was determined using a ruler, and the densities of the solutions were measured by weighing 1 mL samples. […]
# The remaining variable in Equation (1) that required measuring before the calculation of χl^SI could be completed was the strength of the magnetic field at the surface of the magnet (Bmax). […] This value was determined using solutions of GdCl3 (70-100 mM) with known magnetic susceptibilities and by levitating a glass bead (ρp=1.0200 g/cm^3) in these solutions. […]
# The calibrated value for Bmax was used to calculate the χl^SI values for the solutions of Gd(DT3) (using Equation (1) and values for ρl and z that were measured experimentally). […]
# [4] = Label-free detection of streptavidin binding to solid-supported biotin by magnetic levitation
# Description: Beads of biotin-labeled PEGA polymer swell in water (unlike polystyrene-based solid supports), have a loading capacity of 0.2 mmol amine/g PEGA, and pores of sufficient size for ˜70 kDa proteins to access the biotin on the interior of the polymer. The sensitivity of detection depends directly on the loading capacity (i.e., surface density of reacting groups) of the beads and the molecular weight of the bound molecules. In initial experiments, precipitation was observed after adding proteins to the aqueous Gd^3+ solution, so a Gd3+·DTPA chelate was used instead.
# Binding of streptavidin to solid-supported biotin was detected by incubating ˜20 water saturated polymer beads with 20 μL of 0.19-mM protein dissolved in 40-mM potassium phosphate buffer (pH 7.0). After 15 min the solution, was diluted to 1.5 mL to suspend the beads using 210-mM Gd^3+·DTPA in 40-mM potassium phosphate buffer (pH 7.5), and then added ˜20 more biotin-labeled polymer beads. The solution was mixed gently for 5 s with a spatula, and then the cuvette was inserted along the axis of the magnets. After approximately 30 min, all of the beads had clustered into two separate bands (FIG. 19A), the upper one levitating at the same height as the unlabeled PEGA polymer. […]
compound,measurement,setting,value
[Cl][Mn][Cl] [MnCl2],molar magnetic susceptibility of the solid salt,[1],14350×10^−6 cm^3/mol
diethylenetriamine triacetic acid tetradecane [DT3 ligand],pKd,[2],6.52
gadolinium(III) diethylenetriamine triacetic acid tetradecane [Gd(DT3)],average molar magnetic susceptibility χl^CGS,[3],0.036±0.003 cm^3/mol
streptavidin: a 53-kDa protein,binding to solid-supported biotin (levitation band),"[4]; biotin-labeled PEGA beads, 210-mM Gd^3+·DTPA, 40-mM potassium phosphate buffer",binding of streptavidin to the solid-supported biotin
same,non-specific adsorption to unlabeled PEGA polymer (control),[4]; unlabeled PEGA polymer beads,no obvious non-specific adsorption

# From patent US9551706B2, “Density-based methods for separation of materials, monitoring of solid supported reactions and measuring densities of small liquid volumes and solids” (President and Fellows of Harvard College, priority 2007, dated 2017)
